# According to ChEMBL document CHEMBL3046373, “Optimised expression and spectral analysis of the target enzyme CYP51 from Penicillium digitatum with possible new DMI fungicides” (Pest Manag Sci, 2010):
# Columns and labels:
# [1] = molecular target: T1, Cytochrome P450 14alpha-demethylase (Penicillium digitatum, UniProt A1XG20); test: Binding affinity to Penicillium digitatum recombinant N-terminal-His6 tagged CYP51 expressed in Escherichia coli BL21(DE3) by spectrophotometric analysis
# T1 sequence (A1XG20 whole entry): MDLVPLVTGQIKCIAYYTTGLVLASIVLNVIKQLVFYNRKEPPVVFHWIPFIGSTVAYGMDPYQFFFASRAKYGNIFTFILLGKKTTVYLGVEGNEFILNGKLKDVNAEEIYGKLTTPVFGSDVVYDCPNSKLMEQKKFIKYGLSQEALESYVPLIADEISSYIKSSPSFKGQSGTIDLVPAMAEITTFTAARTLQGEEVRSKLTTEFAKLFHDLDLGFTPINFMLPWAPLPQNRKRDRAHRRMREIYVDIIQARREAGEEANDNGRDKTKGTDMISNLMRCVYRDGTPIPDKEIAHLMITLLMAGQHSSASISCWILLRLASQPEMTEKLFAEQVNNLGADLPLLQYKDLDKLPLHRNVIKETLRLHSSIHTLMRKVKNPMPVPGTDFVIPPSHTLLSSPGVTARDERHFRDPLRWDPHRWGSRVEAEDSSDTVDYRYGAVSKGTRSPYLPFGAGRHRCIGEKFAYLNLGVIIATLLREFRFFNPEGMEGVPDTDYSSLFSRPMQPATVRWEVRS
# Penicillium digitatum = test: Antifungal activity against Penicillium digitatum after 48 hr; assay type: functional, organism-based
SMILES,Kd [1] [nM],EC50 (Penicillium digitatum) [µg/mL]
NNc1ncncc1-c1ccccc1 [5-PHENYLPYRIMIDIN-4-YLHYDRAZINE],658,10.1
c1cc2c3c(cccc3c1)NC(c1cnc[nH]1)N2,990,38.6
CC(C)(C)C(=O)C(Oc1ccc(Cl)cc1)n1cncn1 (stereo not given) [TRIADIMEFON],420,
"COc1ccc2c(c1)SCC(N)=N2 [7-METHOXY-2H-BENZO[B][1,4]THIAZINE-3-AMINE]",268,1.18
CC(C)(C)C(O)/C(=C\c1ccc(Cl)cc1Cl)n1cncn1 (stereo not given) [DINICONAZOLE],120,
Nc1nnc(CSCc2ccc(Cl)cc2)s1,642,7.88
